Assays:
[1] = Hygroscopicity, dynamic water vapour sorption (DVS 1000); assay type: physicochemical; settings: for Change In Mass (%): 25° C.; for hygroscopicity (in words): when exposed to humidity
Procedure: Hygroscopicity tests were performed by means of a DVS 1000 apparatus (SMS) allowing dynamic water vapour sorption analysis. Multiple sorption/desorption cycles between 0% and 90% RH were performed at 25° C.
The equipment is a “controlled atmosphere microbalance” where the weighed sample is exposed to controlled variations of the relative humidity (RH) at a constant temperature.

[2] = system: experimental tumors (animal models); settings: cited from earlier work
[3] = system: liver metastases from M5076 murine fibrosarcoma; settings: oral administration; cited from earlier work
[4] = system: tumor cells resistant to alkylating agents or topoisomerase II inhibitors; settings: cells resistant to alkylating agents (melphalan, cisplatin) or topoisomerase II inhibitors (etoposide); cited from earlier work
[5] = in the presence of mouse, rat and human liver microsomes; cited from earlier work

COc1cccc2c1C(=O)c1c(O)c3c(c(O)c1C2=O)C[C@@](O)(C(=O)CO)C[C@@H]3O[C@H]1C[C@H](N2CCO[C@H](OC)C2)[C@H](O)[C@H](C)O1.Cl [Amorphous, (8S-cis,2″S)-7,8,9,10-tetrahydro-6,8,11-trihydroxy-8-(hydroxyacetyl)-1-methoxy-10-{[2,3,6-trideoxy-3-(2-methoxy-4-morpholinyl)-α-L-lyxo-hexopyranosyl]oxy}-5,12-naphthacenedione hydrochloride]
Change In Mass (%) ([1]; Relative Humidity 3.1%, hydrochloride): 0.30% | Change In Mass (%) ([1]; Relative Humidity 6.2%, hydrochloride): 0.83% | Change In Mass (%) ([1]; Relative Humidity 9.3%, hydrochloride): 1.35% | Change In Mass (%) ([1]; Relative Humidity 12.4%, hydrochloride): 1.93% | Change In Mass (%) ([1]; Relative Humidity 15.5%, hydrochloride): 2.45% | Change In Mass (%) ([1]; Relative Humidity 18.6%, hydrochloride): 2.92% | Change In Mass (%) ([1]; Relative Humidity 21.7%, hydrochloride): 3.37% | Change In Mass (%) ([1]; Relative Humidity 24.8%, hydrochloride): 3.79% | Change In Mass (%) ([1]; Relative Humidity 27.9%, hydrochloride): 4.19% | Change In Mass (%) ([1]; Relative Humidity 31.0%, hydrochloride): 4.62% | Change In Mass (%) ([1]; Relative Humidity 34.1%, hydrochloride): 5.08% | Change In Mass (%) ([1]; Relative Humidity 37.2%, hydrochloride): 5.52% | Change In Mass (%) ([1]; Relative Humidity 40.3%, hydrochloride): 5.96% | Change In Mass (%) ([1]; Relative Humidity 43.5%, hydrochloride): 6.43% | Change In Mass (%) ([1]; Relative Humidity 46.6%, hydrochloride): 6.90% | Change In Mass (%) ([1]; Relative Humidity 49.7%, hydrochloride): 7.37% | Change In Mass (%) ([1]; Relative Humidity 52.8%, hydrochloride): 7.88% | Change In Mass (%) ([1]; Relative Humidity 55.9%, hydrochloride): 8.36% | Change In Mass (%) ([1]; Relative Humidity 59.0%, hydrochloride): 8.92% | Change In Mass (%) ([1]; Relative Humidity 62.1%, hydrochloride): 9.46% | Change In Mass (%) ([1]; Relative Humidity 65.2%, hydrochloride): 10.10% | Change In Mass (%) ([1]; Relative Humidity 68.3%, hydrochloride): 10.85% | Change In Mass (%) ([1]; Relative Humidity 71.4%, hydrochloride): 11.69% | Change In Mass (%) ([1]; Relative Humidity 74.5%, hydrochloride): 12.67% | Change In Mass (%) ([1]; Relative Humidity 77.6%, hydrochloride): 14.01% | Change In Mass (%) ([1]; Relative Humidity 80.7%, hydrochloride): 15.76% | Change In Mass (%) ([1]; Relative Humidity 83.8%, hydrochloride): 18.09% | Change In Mass (%) ([1]; Relative Humidity 86.9%): 21.51% | Change In Mass (%) ([1]; Relative Humidity 90.0%, hydrochloride): 26.66% | hygroscopicity (in words) ([1]; listed as nemorubicin amorphous, hydrochloride): highly hygroscopic

COc1cccc2c1C(=O)c1c(O)c3c(c(O)c1C2=O)C[C@@](O)(C(=O)CO)C[C@@H]3O[C@H]1C[C@H](N2CCO[C@H](OC)C2)[C@H](O)[C@H](C)O1.Cl [Form A, nemorubicin hydrochloride dihydrate]
Change In Mass (%) ([1]; Relative Humidity 0.0%): 0.00% | Change In Mass (%) ([1]; Relative Humidity 3.1%, hydrochloride dihydrate): 1.92% | Change In Mass (%) ([1]; Relative Humidity 6.2%, hydrochloride dihydrate): 3.53% | Change In Mass (%) ([1]; Relative Humidity 9.3%, hydrochloride dihydrate): 3.82% | Change In Mass (%) ([1]; Relative Humidity 12.4%, hydrochloride dihydrate): 4.02% | Change In Mass (%) ([1]; Relative Humidity 15.5%, hydrochloride dihydrate): 4.17% | Change In Mass (%) ([1]; Relative Humidity 18.6%, hydrochloride dihydrate): 4.29% | Change In Mass (%) ([1]; Relative Humidity 21.7%, hydrochloride dihydrate): 4.39% | Change In Mass (%) ([1]; Relative Humidity 24.8%, hydrochloride dihydrate): 4.49% | Change In Mass (%) ([1]; Relative Humidity 27.9%, hydrochloride dihydrate): 4.57% | Change In Mass (%) ([1]; Relative Humidity 31.0%, hydrochloride dihydrate): 4.65% | Change In Mass (%) ([1]; Relative Humidity 34.1%, hydrochloride dihydrate): 4.71% | Change In Mass (%) ([1]; Relative Humidity 37.2%, hydrochloride dihydrate): 4.77% | Change In Mass (%) ([1]; Relative Humidity 40.3%, hydrochloride dihydrate): 4.82% | Change In Mass (%) ([1]; Relative Humidity 43.5%, hydrochloride dihydrate): 4.86% | Change In Mass (%) ([1]; Relative Humidity 46.6%, hydrochloride dihydrate): 4.91% | Change In Mass (%) ([1]; Relative Humidity 49.7%, hydrochloride dihydrate): 4.95% | Change In Mass (%) ([1]; Relative Humidity 52.8%, hydrochloride dihydrate): 5.01% | Change In Mass (%) ([1]; Relative Humidity 55.9%, hydrochloride dihydrate): 5.07% | Change In Mass (%) ([1]; Relative Humidity 59.0%, hydrochloride dihydrate): 5.13% | Change In Mass (%) ([1]; Relative Humidity 62.1%, hydrochloride dihydrate): 5.19% | Change In Mass (%) ([1]; Relative Humidity 65.2%, hydrochloride dihydrate): 5.25% | Change In Mass (%) ([1]; Relative Humidity 68.3%, hydrochloride dihydrate): 5.31% | Change In Mass (%) ([1]; Relative Humidity 71.4%, hydrochloride dihydrate): 5.38% | Change In Mass (%) ([1]; Relative Humidity 74.5%, hydrochloride dihydrate): 5.46% | Change In Mass (%) ([1]; Relative Humidity 77.6%, hydrochloride dihydrate): 5.52% | Change In Mass (%) ([1]; Relative Humidity 80.7%, hydrochloride dihydrate): 5.58% | Change In Mass (%) ([1]; Relative Humidity 83.8%, hydrochloride dihydrate): 5.66% | Change In Mass (%) ([1]; Relative Humidity 86.9%, hydrochloride dihydrate): 5.75% | Change In Mass (%) ([1]; Relative Humidity 90.0%, hydrochloride dihydrate): 5.85% | RH at which the two moles of water lost on desorption are re-adsorbed ([1]; after a desorption cycle): 30% | change in mass ([1]; at about 55% RH): about 5% | hygroscopicity (in words) ([1]; hydrochloride dihydrate): non hygroscopic

COc1cccc2c1C(=O)c1c(O)c3c(c(O)c1C2=O)C[C@@](O)(C(=O)CO)C[C@@H]3O[C@H]1C[C@H](N2CCO[C@H](OC)C2)[C@H](O)[C@H](C)O1 [nemorubicin, 3′ des amino-3′ [2(S)methoxy-4-morpholinyl] doxorubicin]
optimal i.v. dose, fold less than that of doxorubicin ([2]; i.v., in vivo): at least 80 fold | oral doses giving antitumor activity comparable to i.v., fold higher than the effective i.v. doses ([2]; oral vs i.v., all the animal models examined): 1.3-2 fold | survival time (best result) [3]: doubling of survival time | cross-resistance [4]: no cross-resistance was observed | cytotoxic activity in vitro [5]: increased

From patent US20100069317A1, “CRYSTALLINE NEMORUBICIN HYDROCHLORIDE” (NERVIANO MEDICAL SCIENCES S.R.L., priority 2006, published 2010)
